Experimental data from US7671057B2, “Therapeutic agent for type II diabetes comprising protease-inhibiting compound” (Ono Pharmaceutical Co., Ltd., priority 2004, dated 2010).

Columns and labels:
Format in all cases: in vivo, mouse
[1] = test system: KK-A^y/Ta Jcl mice; assay: Blood-sugar level at satiety, dose-ranging food admixture up to Day 28 (Example 3); conditions: for Blood-sugar level: end of the test (Day 28)
Description: KK-A^y/Ta Jcl Mice (male, 6-weeks aged, the number of cases; 8 animals) were treated through individual administration, in the form of an admixture with a food, of the Test Compound 2 (N-allyl-N-{(2E)-3-[4-({4-[amino(imino)methyl]phenoxy}-carbonyl)phenyl]-2-methyl-2-propenoyl}glycine/dimethanesulfonate) of the present invention at the daily doses of 0.56 mg, 1.68 mg, 5.6 mg and 16.8 mg/100 g-food, respectively, and the Control Compound 1 (5-{4-[2-(5-ethylpyridine-2-yl)-ethoxy]benzyl}-1,3-thiazolidine-2,4-dion; pioglitazone) at the daily doses of 5.6 mg and 16.8 mg/100 g-food, respectively, […], whereby the control group was fed with an ordinary food alone.
Blood was drawn from the tail vein individually on the day preceding to administration of each compound in the form of an admixture with a food, and on Days 6, 11, 16, 21 and 28 of administration.
The blood samples taken from the tail vein on the respective specified days after the administration were subjected to measurement of the blood-sugar level in accordance with the method as described in Example 1, while the plasma glucagon level after the forced oral administration performed on Days 28 was measured in accordance with the ELISA method as described in Example 1. Also, the glycosylated hemoglobin (HbA1c) and GLP-1 levels were determined in accordance with the latex coagulation method and the ELISA method (YK160, GLP-1 EIA Kit, produced by K.K. Yanaihara Kenkyu-sho of Japan), respectively, while the TG level was measured in accordance with the method as described in Example 1. The total pancreatic insulin content after oral administration of each compound was determined by adding 75% ethanol to the isolated pancreas as frozen, followed by homogenization, and collecting the insulin fraction through Sep-Pak (C18; WATER) treatment of the supernatant liquid produced by centrifugation, followed by determination with the ELIZA method.

[2] = test system: KK-A^y/Ta Jcl mice; assay: Plasma TC, TG, blood-sugar, IRI and IRG levels 3 hours subsequent to the glucose-loading test (Example 1); conditions: 3 hours subsequent to glucose-loading test, after 14 days 30 mg/kg p.o.
Description: As from Day 14 afterwards, the animals after being fasted for 18 hours or more were loaded orally with a glucose solution (2 g/kg, 10 mL/kg), whereby the blood-sugar levels were measured before, and 120 min. after, the said glucose loading. Each of the compounds was given orally to the animals 3 hours prior to the glucose loading, and the whole blood was drawn from each of the animals under anesthesia. Each of the said blood samples was centrifuged to yield a blood plasma, and the resultant blood plasmas were all preserved under freezing in a ultra-low-temperature freezer for subsequent use in the below-described measurements.
The blood-sugar level, total cholesterol level (hereinafter referred to briefly as “TC level”) and triglyceride level (hereinafter referred to briefly as “TG level”) were detected individually in accordance with the hexokinase/G-6-PDH method, enzyme method and GPO/HDAOS method, and measured with use of Biochemical Auto-Analyzer (Model AU 400, manufactured by Olympus Co. of Japan). The plasma insulin level (hereinafter referred to briefly as “IRI level”) and the plasma glucagon level (hereinafter referred to briefly as “IRG level”) were detected individually with the ELISA method (Lebisinsulin Mouse Insulin Kit, produced by K.K. Shibayagi of Japan) and the ELISA method (YK090 Glucagon EIA Kit, produced by K.K. Yanaihara Kenkyuu-sho of Japan), followed by measurement with use of a plate reader (Immuno Mini NJ-2300, Nalge Nunc International K.K. of Japan).
The blood-sugar, TC, TG, IRI and IRG levels and the body weight were expressed as a mean value±standard deviation as calculated for each group of animals. With reference to the significance test between the group treated through administration of the medium and each group treated through administration of the compound, the F test was effected to analyze the data and then, the Student's t-test and Aspin-Welch's t-test were used in cases where the variance between the two groups was determined to be equal and unequal, respectively. Referring to the significance level, less than 5% (p<0.05) was considered significant, and the significance level was expressed as divided into the two events of less than 1% (**: p<0.01) and less than 5% (*: p<0.05).

[3] = Body weight after repeated administration for 14 days (Example 1); conditions: after repeated administration for 14 consecutive days
Description: Following the above-described single administration, the repeated, once-a-day forced oral administration of each compound was performed at the same daily dose for the total period of 14 consecutive days. […] The blood-sugar, TC, TG, IRI and IRG levels and the body weight were expressed as a mean value±standard deviation as calculated for each group of animals. With reference to the significance test between the group treated through administration of the medium and each group treated through administration of the compound, the F test was effected to analyze the data and then, the Student's t-test and Aspin-Welch's t-test were used in cases where the variance between the two groups was determined to be equal and unequal, respectively.

CCc1ccc(CCOc2ccc(CC3SC(=O)NC3=O)cc2)nc1 (centres unmarked) [Control Compound 1, 5-{4-[2-(5-ethylpyridine-2-yl)ethoxy]benzyl}-1,3-thiazolidine-2,4-dione, reference compound]
Blood-sugar lowering effect at the end of the test (Day 28) (in words) ([1]; 16.8 mg/100 g group): no blood-sugar lowering effect observed
Time-course changes in blood-sugar level at satiety vs Control Group (in words, FIG. 1) ([1]; 16.8 mg/100 g group): significant drops in blood-sugar level on Days 6 and 11
Blood-sugar level ([1]; Dose 5.6 (g/100 g-food)): 561.6 ± 28.2 mg/dL
Blood-sugar level ([1]; Dose 16.8 (g/100 g-food)): 497.0 ± 26.8 mg/dL
Blood-sugar level [2]: 289.9 ± 20.6 mg/dL
IRG (plasma glucagon level) [2]: 488 ± 45.8 pg/mL
IRI (plasma insulin level) [2]: 1.25 ± 0.28 ng/mL
TC [2]: 114.6 ± 4.8 mg/dL
TG [2]: 72.7 ± 4.7 mg/dL
Effect on mouse body-weight vs control medium group (in words) [3]: significant elevation in the body weight
Body weight ([3]; 30 mg/kg p.o.): 31.7 ± 0.8 g
